# Source: patent US20260232827A1, “ANTIBODY-DRUG CONJUGATES TARGETING NAPI2B AND METHODS OF USE” (Zymeworks BC Inc., priority 2023, published 2026)
# Assays:
# ZR-75-1 (breast cancer) = assay: In vitro cytotoxicity of camptothecin analogues (CellTiter-Glo); type: cell-based; details: Homo sapiens, ZR-75-1, 120 h, read-out: pIC50 ZR-75 (converted)
# Protocol: (§1) Cytotoxicity of the camptothecin analogues was assessed in vitro as follows.
# (§2) In vitro potency was assessed on multiple cancer cell lines: SK-BR-3 (breast cancer), SKOV-3 (ovarian cancer), Calu-3 (lung cancer), ZR-75-1 (breast cancer) and MDA-MB-468 (breast cancer). Serial dilutions of camptothecin analogues were prepared in RPMI 1640+10% FBS, and 20 μL of each dilution was added to 384-well plates. Cells cultured in log-phase growth were detached by brief incubation in 0.05% Trypsin and resuspended in respective culturing media at 20,000 cells/mL (with the exception of ZR-75 cells, which were resuspended at 10,000 cells/mL). 50 μL of cell suspension was then added to the plates containing test articles. Cells were incubated with test articles for 4 d at 37° C. (with the exception of ZR-75 cells, which were incubated for 5 d). Growth inhibition was assessed by CellTiter-Glo® (Promega Corporation, Madison, WI) and luminescence was measured on a plate reader. IC50 values were determined by GraphPad Prism (GraphPad Software, San Diego CA).
# [1] = tested on: MDA-MB-468 (breast cancer); assay: as above; type: cell-based; details: Homo sapiens, MDA-MB-468, 96 h, read-out: pIC50 MDA-MB-468 (converted)
# Protocol: as §1, §2
# SK-BR-3 (breast cancer) = assay: as above; type: cell-based; details: Homo sapiens, SK-BR-3, 96 h, read-out: pIC50 SKBR-3 (converted)
# Protocol: as §1, §2
# Calu-3 (lung cancer) = assay: as above; type: cell-based; details: Homo sapiens, Calu-3, 96 h, read-out: pIC50 Calu-3 (converted)
# Protocol: as §1, §2
# SKOV-3 (ovarian cancer) = assay: as above; type: cell-based; details: Homo sapiens, SK-OV-3, 96 h, read-out: pIC50 SKOV-3 (converted)
# Protocol: as §1, §2
# [2] = tested on: Construct 1 (chimeric human NaPi2b, region 239-259); assay: Binding region mapping, flow cytometry on transfected HEK293-6e cells; details: 24 hours at 4° C.
# Description: (§3) NaPi2b constructs containing deletions in the main extracellular loop of human NaPi2b, as well as chimeric NaPi2b/NaPi2c constructs concerning this main loop, were generated.
# (§4) As a complementary strategy, two additional constructs were designed in which the relevant region of the main loop was deleted such as to mimic NaPi2c/NaPi2a main extracellular loop (Constructs 6-7 in Table 52.1). Clones were generated at GenScript Biotech (Piscataway, NJ).
# (§5) Constructs were expressed in HEK293-6e cells as follows. Cells were maintained under standard culture conditions (37° C./5% CO2) with shaking at 110 rpm for suspension and cultured in FreeStyle™ 293 Expression Medium (Thermo Fisher Scientific, Waltham, MA) supplemented with 1% fetal bovine serum (Thermo Fisher Scientific, Waltham, MA) and 1× Penicillin-Streptomycin (Thermo Fisher Scientific, Waltham, MA). Cells were transfected with clones expressing the constructs listed in Table 52.1, at 1 μg of DNA per 1 million cells, using 293Fectin™ Transfection Reagent (Thermo Fisher Scientific, Waltham, MA) and Opti-MEM™ I Reduced Serum Medium (Thermo Fisher Scientific, Waltham, MA), and incubated for 24 hours under standard culture conditions (37° C./5% CO2/110 rpm). Following transfection, cells were seeded at 50,000 cells/well in conical-bottom 96-well plates and treated with a serial dilution of test antibody for 24 hours at 4° C. to prevent internalization. Cells were treated with final concentrations of all humanized antibodies of 200, 20, or 2 nM. Cells were treated with final concentrations of the reference anti-NaPi2a rabbit antibody of 50, 5, or 0.5 nM. […] Following incubation and washing, fluorescence was detected by flow cytometry on a BD LSRFortessa™ Cell Analyzer (BD Biosciences, Franklin Lake, NJ) with 1,000 minimum events collected per well. […] Background-subtracted AF647 Mean Fluorescence Intensity (MFI) values were calculated by subtracting the average MFI of three technical replicates of unstained (no primary antibody) cells.
# [3] = tested on: Construct 2 (chimeric human NaPi2b, region 280-301); assay: as above; details: 24 hours at 4° C.
# Description: as §3, §4, §5
Compound,IC50 (ZR-75-1 (breast cancer)),IC50 [1],IC50 (SK-BR-3 (breast cancer)),IC50 (Calu-3 (lung cancer)),IC50 (SKOV-3 (ovarian cancer)),Background-Subtracted AF647 Mean Fluorescence Intensity ([2]; antibody 2.0 nM),Background-Subtracted AF647 Mean Fluorescence Intensity ([2]; antibody 20.0 nM),Background-Subtracted AF647 Mean Fluorescence Intensity ([2]; antibody 200.0 nM),Background-Subtracted AF647 Mean Fluorescence Intensity ([3]; antibody 20.0 nM),Background-Subtracted AF647 Mean Fluorescence Intensity ([3]; antibody 200.0 nM)
"CC[C@@]1(O)C(=O)OCc2c1cc1n(c2=O)Cc2c-1nc1cc(F)c(OC)cc1c2CNC(=O)NCc1ccc(N)cc1 [Compound 135, (S)-1-(4-aminobenzyl)-3-((4-ethyl-8-fluoro-4-hydroxy-9-methoxy-3,14-dioxo-3,4,12,14-tetrahydro-1/- pyrano[3′,4′:6,7]indolizino[1,2-b]quinolin-11-yl)methyl)urea]",13.2 nM,10.7 nM,12.3 nM,–,–,–,–,–,–,–
CC[C@@]1(O)C(=O)OCc2c1cc1n(c2=O)Cc2c-1nc1cc(F)c(C)cc1c2CN1C2CCC1(CO)CC2 [Compound 121],–,0.269 nM,0.148 nM,0.145 nM,0.195 nM,–,–,–,–,–
"CC[C@@]1(O)C(=O)OCc2c1cc1n(c2=O)Cc2c-1nc1cc(F)c(C)cc1c2CNS(=O)(=O)c1ccc(N)cc1 [Compound 127, (S)-4-amino-N-((4-ethyl-8-fluoro-4-hydroxy-9-methyl-3,14-dioxo-3,4,12,14-tetrahydro-1H-pyrano[3′,4′:6,7]indolizino[1,2-b]quinolin-11-yl)methyl)benzenesulfonamide]",5.25 nM,3.8 nM,3.31 nM,9.33 nM,14.5 nM,–,–,–,–,–
MX35 [MX35 (v18992)],–,–,–,–,–,"1,893","1,816","1,718","1,246","1,356"
"CC[C@@]1(O)C(=O)OCc2c1cc1n(c2=O)Cc2c-1nc1cc(F)c(C)cc1c2CNS(=O)(=O)c1ccccc1 [Compound 125, (S)-N-((4-ethyl-8-fluoro-4-hydroxy-9-methyl-3,14-dioxo-3,4,12,14-tetrahydro-1H-pyrano[3′,4′:6,7]indolizino[1,2-b]quinolin-11-yl)methyl)benzenesulfonamide]",1.32 nM,3.8 nM,1.32 nM,2.82 nM,7.08 nM,–,–,–,–,–
"CC[C@@]1(O)C(=O)OCc2c1cc1n(c2=O)Cc2c-1nc1cc(F)c(OC)cc1c2CNS(=O)(=O)c1ccc(N)cc1 [Compound 128, (S)-4-amino-N-((4-ethyl-8-fluoro-4-hydroxy-9-methoxy-3,14-dioxo-3,4,12,14-tetrahydro-1H-pyrano[3′,4′:6,7]indolizino[1,2-b]quinolin-11-yl)methyl)benzenesulfonamide]",4.27 nM,8.32 nM,5.25 nM,–,18.2 nM,–,–,–,–,–
"CC[C@@]1(O)C(=O)OCc2c1cc1n(c2=O)Cc2c-1nc1cc(F)c(C)cc1c2CNS(N)(=O)=O [Compound 131, (S)-((4-ethyl-8-fluoro-4-hydroxy-9-methyl-3,14-dioxo-3,4,12,14-tetrahydro-1H-pyrano[3′,4′:6,7]indolizino[1,2-b]quinolin-11-yl)methyl)sulfamide]",0.955 nM,9.12 nM,1.05 nM,9.12 nM,–,–,–,–,–,–
"CC[C@@]1(O)C(=O)OCc2c1cc1n(c2=O)Cc2c-1nc1cc(F)c(C)cc1c2CN1CCN(c2ccc(N)cc2)CC1 [Compound 108, (S)-11-((4-(4-aminophenyl)piperazin-1-yl)methyl)-4-ethyl-8-fluoro-4-hydroxy-9-methyl-1,12-dihydro-14H-pyrano[3′,4′:6,7]indolizino[1,2-b]quinoline-3,14(4H)-dione]",18.6 nM,47.9 nM,29.5 nM,40.7 nM,55 nM,–,–,–,–,–
"CC[C@@]1(O)C(=O)OCc2c1cc1n(c2=O)Cc2c-1nc1cc(F)c(C)cc1c2CN1CCSCC1CO (stereo partly drawn) [Compound 114, (4S)-4-ethyl-8-fluoro-4-hydroxy-11-((3-(hydroxymethyl)thiomorpholino)methyl)-9-methyl-1,12-dihydro-14H-pyrano[3′,4′:6,7]indolizino[1,2-b]quinoline-3,14(4H)-dione]",–,0.417 nM,0.107 nM,0.0933 nM,0.178 nM,–,–,–,–,–
"CC[C@@]1(O)C(=O)OCc2c1cc1n(c2=O)Cc2c-1nc1cc(F)c(N)cc1c2CN=[N+]=[N-] [Compound 152, (S)-9-amino-11-(azidomethyl)-4-ethyl-8-fluoro-4-hydroxy-1,12-dihydro-14H-pyrano[3′,4′:6,7]indolizino[1,2-b]quinoline-3,14(4H)-dione]",–,5.01 nM,3.24 nM,1.48 nM,2.88 nM,–,–,–,–,–
"CC[C@@]1(O)C(=O)OCc2c1cc1n(c2=O)Cc2c-1nc1cc(F)c(C)cc1c2CNS(C)(=O)=O [Compound 122, (S)-N-((4-ethyl-8-fluoro-4-hydroxy-9-methyl-3,14-dioxo-3,4,12,14-tetrahydro-1H-pyrano[3′,4′:6,7]indolizino[1,2-b]quinolin-11-yl)methyl)methanesulfonamide]",1.29 nM,1.1 nM,1.12 nM,3.72 nM,9.12 nM,–,–,–,–,–
"CC[C@@]1(O)C(=O)OCc2c1cc1n(c2=O)Cc2c-1nc1cc(F)c(C)cc1c2CN1CCO[C@@H](CO)C1 [Compound 113, (S)-4-ethyl-8-fluoro-4-hydroxy-11-(((R)-2-(hydroxymethyl)morpholino)methyl)-9-methyl-1,12-dihydro-14H-pyrano[3′,4′:6,7]indolizino[1,2-b]quinoline-3,14(4H)-dione]",2.19 nM,3.39 nM,1.95 nM,3.02 nM,4.27 nM,–,–,–,–,–
